The source of these data is US12599554B2, “Pharmaceutical formulations comprising tadalafil” (KYDES PHARMACEUTICALS, LLC, priority 2020, dated 2026).

Structures are written as SMILES.

For data set [1] the following is noted: cited from earlier work.
The conditions of data set [2]: cited from earlier work. This is another data set of the same source.
The nature of data set [3]: Solubility of tadalafil in aqueous media and solvents; precipitation on adding water. It counts as physicochemical. The text has this: Tadalafil is soluble in 2-pyrollidone, but the use of 2-pyrollidone as a solvent is limited by color formation, unpalatable taste, and incompatibility with plastic components of metered-dose delivery systems. […] Compatibility with the pumps was improved with water in an amount of at least 10% weight in volume.

Consider `CN1CC(=O)N2[C@H](c3ccc4c(c3)OCO4)c3[nH]c4ccccc4c3C[C@@H]2C1=O` [Tadalafil, (2R,8R)-2-(1,3-benzodioxol-5-yl)-6-methyl-3,6,17-triazatetracyclo[8.7.0.0^3,8.0^11,16]heptadeca-1(10),11,13,15-tetraene-4,7-dione], for which the “solubility in aqueous media” value in data set [1] was “insoluble”. The bioavailability in humans in data set [2] is given as 80%. For the same compound, the “solubility in 2-pyrollidone” value in data set [3] (2-pyrollidone) was “soluble”. For the same compound, in data set [3] (propylene carbonate), the “solubility in propylene carbonate” value was “soluble”.
